For one compound, antimicrobial effect results are on record in patent publication US10863748B2, “Antibacterial products and processes for preparing antibacterial products from maple syrup” (priority 2016, dated 2020).

Each structure is given as a SMILES string.

This experiment concerns three bacteria and one yeast. Nature of the experiment: Antimicrobial effect of melamine per se. The experiment is classed as cell-based.

Turning to `Nc1nc(N)nc(N)n1` [melamine, 2,4,6-triamino-1,3,5-triazine], the antimicrobial effect result is reported as “did not exhibit any antimicrobial effect”.
